Assay results reported in patent publication US20150258043A1, “USE OF SPHINGOID LONG CHAIN BASES AND THEIR ANALOGS IN TREATING AND PREVENTING BACTERIAL INFECTIONS” (YEDA RESEARCH AND DEVELOPMENT CO. LTD., priority 2012, published 2015).
Entries after “also recorded” stand apart in the source; their conditions may differ. Where two headings read alike, the source gives them in different places.

Columns and labels:
P. aeruginosa strain 762 = experiment: Effect of LCBs on P. aeruginosa growth in vitro (colony counts); format: cell-based, Pseudomonas aeruginosa; settings: for inhibition of P. aeruginosa growth in vitro (in words): concentrations up to 50 μM
Experimental: P. aeruginosa strain 762 or ATCC 27853 were grown in LB medium at 37° C. until the early logarithmic phase (OD550 0.2). Bacteria were then diluted in PBS to a concentration of 5×10^3 CFU/ml. Stock solutions of sphingolipids (5 mM in 7.5% n-Octyl-β-D-Glucopyranoside (OGP) or in DMSO were prepared by sonication. Sphingolipids were added to the bacteria (0.1-50 μM in 0.075% OGP or 1% DMSO). Bacteria were incubated with sphingolipids for 2 hr at 37° C. and a sample of 200 μl bacteria solution were plated on LB agar plates, incubated overnight at 37° C. and colonies were counted.
The direct effect of sphingosine and other sphingoid long chain bases (LCBs) on the growth of P. aeruginosa was examined in vitro. Bacteria were incubated with a variety of LCBs and the EC50 values on bacterial growth were determined (Table 1).

[1] = cited from earlier work
[2] = test system: P. aeruginosa strains 762, PA14 and ATCC 27853; experiment: Pulmonary P. aeruginosa infection of CF and CerS2 null mice, inhalation treatment (bacteria in lung, sickness score); format: in vivo, mouse; settings: CF and CerS2 null mice; inhalation (125 μM) 1 h before or 1 h after intranasal infection with 1×10^8 CFU
Experimental: (A,B) The number of bacteria in the lungs and the overall sickness score (C,D) of WT, CerS2 null and CF mice 3-4 h after intranasal infection with 1×10^8 CFU of P. aeruginosa strains 762 (A,C) and CF mice with strains PA14 and ATCC 27853. Mice were inhaled with 0.9% NaCl or acid ceramidase 1 h prior (b.i.) to infection, or with sphingosine or FTY720 1 h before (b.i.) or 1 h after (a.i.) infection. Sickness score 4, severely affected (unresponsive animal); score 3 affected, (heavy breathing, low body temperature, ruffled fur) score 2, moderately affected (ruffled fur, heavy breathing); score 1, slightly affected (ruffled fur); score 0, unaffected (healthy appearance). Data are means±s.d., n=4.
Pulmonary infection of CF or CerS2 mice was achieved by intranasal application of P. aeruginosa strains 762, ATCC 27853 or PA14. Mice inhaled acid ceramidase, sphingosine, FTY720 or a combination of sphingosine and ceramide 1 hr before or after pulmonary infection. The number of bacteria in the lung was determined by culturing aliquots of lysed lungs on agar plates. Clinical symptoms of the infection were scored.
Inhalation was performed with a PARI Boy SX nebulizer (PARI GmbH, Starnberg, Germany). This nebulizer generates a fine aerosol mist by pumping the fluid with an air jet. The mice inhaled the aerosol via a mask that is part of an oral inhalation device for children (LL-Nebulizer); the mask was clipped at the sides to cover only the mouse's nose and the surrounding part of the face. […]
P. aeruginosa were grown for 14 to 14.5 h on fresh tryptic soy agar (TSA) plates (Becton Dickinson Biosciences, Germany). […] The bacterial OD was determined, and the bacteria were diluted in prewarmed H/S to a concentration of 1×10^8 CFU per 20 μL. […]
Lungs were removed, homogenised and lysed for 10 min in 5 mg/ml saponin to release intracellular bacteria. […] Bacterial counts (CFU) were counted after 18 h.

[3] = test system: P. aeruginosa ATCC 27853 internalization into tracheal epithelial cells; experiment: Uptake of P. aeruginosa into tracheal epithelial cells with cytochalasin B; format: cell-based, mouse; settings: 10 μM cytochalasin B; strain ATCC 27853; data not shown
[4] = Pseudomonas aeruginosa, Table 2 non-inhibitors, strain 762, up to 50 μM in 0.075% OGP, 2 hrs at 37° C., read-out: EC50
[5] = Pseudomonas aeruginosa, P. aeruginosa strain 762, 2 hrs at 37° C. in 0.075% OGP, colonies counted, at least 3 independent experiments, read-out: EC50 (μM) ± S.D.
[6] = Pseudomonas aeruginosa, 762, Table 3, Example 3, method of Example 2, n=3 for each analog, given as ranges, read-out: EC50

Question: With `CCCCCCC/C=C/[C@@H](O)[C@@H](N)CO` [D-erythro-C12-Sphingosine] as the compound, how does the EC50 (P. aeruginosa strain 762; [4]) read?
Answer: > 50 µM

Question: Which EC50 (P. aeruginosa strain 762; [5]) does the source give for `CCCCCCCCCCCCCCC/C=C/[C@H](O)[C@H](N)CO` [D-erythro-C20-Sphingosine, D-erythro-C20-sphingosine] here?
Answer: 0.3 µM

Question: And the “inhibition of P. aeruginosa growth in vitro (in words)” value (“inhibition of P. aeruginosa growth” below) (P. aeruginosa strain 762)?
Answer: more potent than C18-sphingosine

Question: Which EC50 (P. aeruginosa strain 762; Pseudomonas aeruginosa, 762) does the source give for `CCCC[C@@H](C)[C@@H](OC(=O)C[C@@H](CC(=O)O)C(=O)O)[C@H](C[C@@H](C)C[C@H](O)CCCC[C@@H](O)C[C@H](O)[C@H](C)N)OC(=O)C[C@@H](CC(=O)O)C(=O)O` (stereo in doubt) [FB1, fumonisin B1, reference compound] here?
Answer: > 50 µM

Question: What about the “inhibition of P. aeruginosa growth” value (P. aeruginosa strain 762) of the same compound?
Answer: without effect; also recorded: did not inhibit growth of the bacteria at all

Question: What about the “pKa (in PBS)” value ([1]; superscript reference mark) of the same compound?
Answer: >9^4

Question: Which EC50 (P. aeruginosa strain 762; [6]) does the source give for `CCCCCCCCc1ccc(CC[C@](N)(CO)CCP(=O)(O)O)cc1` [(R)-FTY-phosphonate] here?
Answer: 5 to 50 µM

Question: Which EC50 (P. aeruginosa strain 762; [5]) does the source give for `CCCCCCCCCCC/C=C/[C@H](O)[C@H](N)CO` [D-erythro-C16-Sphingosine, D-erythro-C16-sphingosine] here?
Answer: 1 ± 0.2 µM

Question: For `CCCCCCCCCCCCCCC[C@@H](O)[C@H](N)CO` (stereo in doubt) [L-threo-dihydrosphingosine (Safingol), L-threo-dihydrosphingosine (L-threo-sphinganine)], which EC50 (P. aeruginosa strain 762; [6]) is on record?
Answer: 0.5 to 1 µM

Question: And the EC50 (P. aeruginosa strain 762; [5])?
Answer: 0.4 µM

Question: And the “inhibition of P. aeruginosa growth” value (P. aeruginosa strain 762; listed as L-threo-dihydrosphingosine)?
Answer: inhibits as well as the natural occurring D-erythro enantiomer

Question: What about the “inhibition of P. aeruginosa growth” value (P. aeruginosa strain 762; listed as L-threo-sphinganine) of the same compound?
Answer: more potent than the neutral ones

Question: With `CCCCCCCCCCCCC/C=C/C[C@H](N)CO` [3-deoxy-D-erythro-sphingosine] as the compound, how does the EC50 (P. aeruginosa strain 762; [5]) read?
Answer: 0.5 µM

Question: Which EC50 (P. aeruginosa strain 762; [5]) does the source give for `CCCCCCCCCCCCC/C=C/[C@@H](O)CN` [1-desoxymethyl sphingosine, 1-desoxymethylsphingosine] here?
Answer: 0.7 ± 0.1 µM

Question: For `CCCCCCCCCCCCCCC[C@@H](O)[C@@H](N)CO` [D-erythro-dihydrosphingosine, (2S,3R)-2-aminooctadecane-1,3-diol], which EC50 (P. aeruginosa strain 762; [6]) is on record?
Answer: 0.5 to 1 µM

Question: And the EC50 (P. aeruginosa strain 762; [5])?
Answer: 0.6 ± 0.5 µM

Question: With `CCCCCCCCCCCCC/C=C/[C@@H](O)[C@H](N)CO` (stereo in doubt) [L-threo-sphingosine] as the compound, how does the EC50 (P. aeruginosa strain 762; [6]) read?
Answer: 0.5 to 1 µM

Question: And the EC50 (P. aeruginosa strain 762; [5])?
Answer: 0.6 ± 0.2 µM

Question: Which EC50 (P. aeruginosa strain 762; [6]) does the source give for `CCCCCCCCc1ccc(CCC(N)(CO)CO)cc1` [FTY720, 2-amino-2-[2-(4-octylphenyl)ethyl]propane-1,3-diol] here?
Answer: 1 to 5 µM

Question: What about the EC50 (P. aeruginosa strain 762; [5]) of the same compound?
Answer: 1.9 µM

Question: And the “protection from pulmonary P. aeruginosa infection” value [2]?
Answer: completely protected CF and CerS2 null mice from P. aeruginosa infection and even eliminated an existing infection; also recorded: potent inhibitor in vivo; also recorded: rescue CF and CerS2 null mice from pulmonary P. aeruginosa infection; also recorded: prevents pulmonary P. aeruginosa infection

Question: What about the “pK (in PBS)” value ([1]; superscript reference marks) of the same compound?
Answer: 7.8^3

Question: For `CCCCCCCCCCCCCCC[C@@H](O)[C@@H](N)CO` [L-erythro-dihydrosphingosine, L-erythro-dihydrosphingosine (L-erythro-sphinganine)], which EC50 (P. aeruginosa strain 762; [5]) is on record?
Answer: 0.8 ± 0.1 µM

Question: With `CCCCCCCCCCCCC/C=C/[C@@H](O)[C@H](CO)NC` [Monomethyl D-erythro-Sphingosine, Monomethyl D-erythro-sphingosine] as the compound, how does the EC50 (P. aeruginosa strain 762; [5]) read?
Answer: 1.9 ± 0.1 µM

Question: Which EC50 (P. aeruginosa strain 762; Pseudomonas aeruginosa, 762, 2 h) does the source give for `CCCC[C@@H](C)[C@@H](OC(=O)C[C@@H](CC(=O)O)C(=O)O)[C@H](C[C@@H](C)C[C@H](O)CCCC[C@@H](O)C[C@H](O)[C@H](C)N)OC(=O)C[C@@H](CC(=O)O)C(=O)O` [FB1, fumonisin B1, reference compound] here?
Answer: > 50 µM

Question: With `CCCCCCCCCCCCCCC[C@@H](O)[C@H](CO)NC(C)=O` [N-acetyl-D-erythro-dihydrosphingosine] as the compound, how does the EC50 (P. aeruginosa strain 762; [4]) read?
Answer: > 50 µM

Question: What about the “inhibition of P. aeruginosa growth” value (P. aeruginosa strain 762) of the same compound?
Answer: reduces the activity

Question: Which EC50 (P. aeruginosa strain 762; [5]) does the source give for `CCCCCCCCCCCCCCC[C@H](O)[C@@H](N)CO` [D-threo-dihydrosphingosine, D-threo-dihydrosphingosine (D-threo-sphinganine)] here?
Answer: 0.5 ± 0.1 µM

Question: Which EC50 (P. aeruginosa strain 762; [5]) does the source give for `CCCCCCCCCCCCC/C=C/[C@H](O)[C@@H](N)CO` [D-threo-sphingosine] here?
Answer: 0.6 ± 0.1 µM

Question: Which EC50 (P. aeruginosa strain 762; [4]) does the source give for `CCCCCCCCC/C=C/[C@H](O)[C@H](N)CO` [D-erythro-C14-Sphingosine] here?
Answer: > 50 µM

Question: With `CCCCCCCCCCCCC/C=C/[C@H](O)[C@H](N)CO[C@@H]1O[C@H](CO)[C@H](O)[C@H](O)[C@H]1O` (stereo in doubt) [Galactosyl Sphingosine (Psychosine), Galactosyl D-erythro-sphingosine (psychosine)] as the compound, how does the EC50 (P. aeruginosa strain 762; [6]) read?
Answer: 1 to 5 µM

Question: What about the EC50 (P. aeruginosa strain 762; [5]) of the same compound?
Answer: 2.2 ± 1.4 µM

Question: Which EC50 (P. aeruginosa strain 762; [5]) does the source give for `CCCCCCCCCCCCCC[C@@H](O)[C@@H](O)[C@@H](N)CO` [Phyto-sphingosine, 4-D-hydroxysphinganine (phytosphingosine)] here?
Answer: 0.9 µM

Question: What about the “category as bacterial growth inhibitor” value (P. aeruginosa strain 762; classes by EC50) of the same compound?
Answer: strong inhibitor

Question: Which EC50 (P. aeruginosa strain 762; [5]) does the source give for `CCCCCCCCCCCCCCC[C@H](O)[C@@H](C)N` [1-deoxy-D-erythro-dihydrosphingosine] here?
Answer: 0.7 µM

Question: For `CCCCCCCCCCCCC/C=C/[C@@H](O)[C@@H](N)CO` [L-erythro-sphingosine], which EC50 (P. aeruginosa strain 762; [5]) is on record?
Answer: 0.8 ± 0.1 µM

Question: Which EC50 (P. aeruginosa strain 762; [6]) does the source give for `CCCCCCCCCCCCC/C=C/[C@H](O)[C@H](N)COP(=O)(O)O` (stereo in doubt) [Sphingosine-1-P, sphingosine-1-phosphate, reference compound] here?
Answer: > 50 µM

Question: And the EC50 (P. aeruginosa strain 762; [4])?
Answer: > 50 µM

Question: What about the “inhibition of P. aeruginosa growth” value (P. aeruginosa strain 762) of the same compound?
Answer: without effect

Question: And the “inhibition of P. aeruginosa growth” value (P. aeruginosa strain 762; listed as sphingosine-1-phosphate (S1P))?
Answer: did not inhibit growth of the bacteria at all

Question: Which EC50 (P. aeruginosa strain 762; [5]) does the source give for `CCCCCCCCCCCCC/C=C/[C@H](O)[C@@H](C)N` [1-deoxy-D-erythro-sphingosine] here?
Answer: 0.9 ± 0.1 µM

Question: With `C=C1[C@@H](C)[C@H]2[C@H](Cc3ccccc3)NC(=O)[C@]23OC(=O)/C=C/[C@H](O)CCC[C@@H](C)C/C=C/[C@H]3[C@@H]1O` [cytochalasin B] as the compound, how does the “internalization of P. aeruginosa into tracheal epithelial cells” value [3] read?
Answer: prevented internalization
